Structures can show the parent of a compound that is named as a salt. Where two headings read alike, the source gives them in different places.

Type in all cases: cell-based
The subject of test [1] is BT-474, MCF-7, BT-20 and MDA-231 human breast cancer cells. Kind of test: Annexin V / PI apoptosis assay, breast cancer cells. Conditions: 24 hours. The text has this: Apoptosis is a normal physiologic process which occurs during embryonic development as well as in maintenance of tissue homeostasis. The apoptotic program is characterized by certain morphologic features, including loss of plasma membrane asymmetry and attachment, condensation of the cytoplasm and nucleus, and internucleosomal cleavage of DNA. […]. In apoptotic cells, the membrane phospholipid phosphatidylserine (PS) is translocated from the inner to the outer leaflet of the plasma membrane, thereby exposing PS to the external cellular environment. Annexin V is a 35-36 kDa Ca2+ dependent phospholipid-binding protein that has a high affinity for PS, and binds to cells with exposed PS. Annexin V may be conjugated to fluorochromes including FITC. […]
FITC Annexin V staining precedes the loss of membrane integrity which accompanies the latest stages of cell death resulting from either apoptotic or necrotic processes. […] However, when apoptosis is measured over time, cells can be often tracked from FITC Annexin V and PI negative (viable, or no measurable apoptosis), to FITC Annexin V positive and PI negative (early apoptosis, membrane integrity is present) and finally to FITC Annexin V and PI positive (end stage apoptosis and death). […]

In another test the test system is H69AR lung cancer cells. Kind of test: SRB cell viability assay, H69AR. The note with it: Homo sapiens. As for the experimental part:
(§1) The effect of OSC inhibition was evaluated in additional cancer cell lines as well. Cancer cell lines may be purchased from ATCC (Manassas, Va.). The SRB assay has been employed for determination of the inhibitory effects of RO 48-8071 on growth of different cancer cells. Cells were seeded into 96-well plates and incubated overnight at 37° C. with 5% CO2. The culture medium was removed after 24 hours, and cells were washed with DMEM/F12 medium and then treated with various concentrations of RO 48-8071 in 5% FBS culture medium for 24 and 48 hours. Surviving or adherent cells were fixed in situ by withdrawing the growth medium, adding 100 μl PBS and 100 μl 50% trichloroacetic acid and then incubating at 4° C. for one hour. Cells were washed with ice-cold water, dried at room temperature (RT), and then stained with 50 μl 4% SRB for eight minutes at RT. Unbound dye was removed by washing with cold 1% acetic acid for five times, and plates were dried at RT. Bound stain was solubilized with 150 μl 10 mM Tris buffer and absorbance of samples was read at 520 nm with a SpecTRA MAX 190 microplate reader (Molecular Devices, Sunnyvale, Calif.). Six wells were used for each concentration, and each experiment was performed two to three times.
Effect of RO 48-8071 on lung cancer cell line H69AR viability. […] The culture mediums employed 20% FBS RPMI-1640 for culture and 10% FBS RPMI-1640 for treatment.

For test [2], the system named is T47-D breast cancer cells. The experiment in a line: SRB cell viability assay, T47-D. The note with it: for IC50: Homo sapiens, T47D, Breast (ER+ PR+). As for the experimental part:
The sulforhodamine B (SRB) assay was employed to evaluate the effect of OSC inhibitor Ro 48-8071 on viability of breast cancer and normal mammary gland cells with slight modification of the original procedure established at NCI. Accordingly, the cells were seeded in 96-well plates in 100 μl culture medium and incubated overnight at 37° C. with 5% CO2. […] The surviving or adherent cells were fixed in situ by withdrawing the growth medium and adding 100 μl of PBS and 100 μl of 50% cold trichloroacetic acid and then incubating at 4° C. for 1 h. The surviving cells were washed with ice-water, dried at room temperature (RT), and then stained with 50 μl 4% SRB for 8 min at RT. Unbound dye was removed by washing 5 times with cold 1% acetic acid, and the plates were dried at RT. Bound stain was solubilized with 150 μl 10 mM Tris buffer, and absorbance of samples were measured at 520 nm with a SpecTRA MAX 190 microplate reader (Sunnyvale, Calif.). In these experiments on BT-474, T47-D, and AG11132A cell lines, six wells were used for each concentration, and each experiment was performed at least twice.
as §1
Effect of RO 48-8071 on breast cancer cell line T47-D viability. […] The culture mediums employed 10% FBS DMEM/F12 for culture and 5% FBS DMEM/F12 for treatment.

The test system of test [3] is Capan-1 pancreatic cancer cells. Kind of test: SRB cell viability assay, Capan-1. Conditions: Homo sapiens, Capan-1, Pancreas. On the procedure:
as §1
Effect of RO 48-8071 on pancreatic cancer cell line Capan-1 viability. […] The culture mediums employed 20% FBS IMDM for culture and 10% FBS IMDM for treatment.

[4] abbreviates: 24 hours, read-out: IC50 (μM) (24 hours).
Where [5] appears, read: 48 hours, read-out: IC50 (μM) (48 hours).

For the compound `C=CCN(C)CCCCCCOc1ccc(C(=O)c2ccc(Br)cc2)c(F)c1` [Ro 48-8071, 4′-[6-(Allylmethylamino)hexyloxy]-4-bromo-2′-fluorobenzophenone fumarate], the “apoptosis and cell death (annexin V / PI positive cells)” value in test [1] is “Induces Apoptosis and Cell Death”. Also, the IC50 in the test with H69AR lung cancer cells (setting [4]) was determined as 10.8 ± 0.609 µM; with H69AR lung cancer cells (setting [5]) it was 8.11 ± 0.355 µM; in test [2] (setting [4]), 11.5 ± 0.358 µM; in test [2] (setting [5]), 7.76 ± 0.293 µM; in test [3] (setting [4]), 18.6 ± 1.62 µM; in test [3] (setting [5]), 13.7 ± 0.168 µM. Also, the “effect on cell viability (SRB)” value in test [2] (24 hours, dose-dependent, FIG. 2B) is “significantly inhibit the viability”.

For the origin of these results see patent US10143686B2, “Oxidosqualene cyclase as a protein target for anticancer therapeutics” (The Curators of the University of Missouri, priority 2010, dated 2018).
